Patent US20060068455A1, “GABA detection methods and applications” (priority 2004, published 2006)

Tested on: rat brain tissue
Experiment: Real-time fluorescence detection of Ca^2+-dependent GABA release from rat neural tissue on GABA-T/SSADH sensor
Assay type: cell-based
Description: Adult Sprague-Dawley rats about 160 grams each were injected with an overdose of Nembutal. The brains or spinal cords were removed and washed several times with PBS and then embedded with 5% low melting temperature agarose (NuSieve® GAG® agarose, FMC BioProducts, Me.). The embedded brains or spinal cords were cut with a Vibratome (VT10003, LEICA Microsystems, Germany) in 300 μm tissue sections. Each tissue section was placed on a GABA-T/SSADH fluorometric silica glass sensor and then GABA released from the tissue sections were measured with Fluoroskan Ascent (Labsystems, Finland).
The silica glass sensors of the present invention may be used to assay neural tissue and agents which affect neural tissue. […] Neural tissue, […], was cultured on GABA-T/SSADH sensors prepared inside tissue culture vessels. […] Therefore, GABA release is stimulated by Ca^2+.
The effect of various agents on GABA release in rat neural tissue were assayed in real-time with a GABA-T/SSADH sensor. The agents tested were 2-APB (a cell-permeable IP3 receptor antagonist), Thapsigargin (a blocker of store-specific Ca^2+-ATPase), Ryanodine and caffeine (increase internal Ca^2+ level), and KN-93 (CAM kinase II inhibitor).
FIGS. 10 and 11 show the effect of Thapsigargin and Ryanodine on Ca^2+-dependent GABA release, respectively. Therefore, the silica glass sensors of the present invention may be used for assaying the effect of various agents on cells and tissues cultured thereon.

| SMILES | less GABA release (75 μM 2-APB without 10 mM CaCl2 compared with 75 μM 2-APB with 10 mM CaCl2, FIG. 9) | effect on Ca^2+-dependent GABA release (75 μM 2-APB, rat neural tissue, FIG. 9) | GABA release versus controls (100 mM Ca^2+, rat brain tissue, FIG. 8) |
| --- | --- | --- | --- |
| NCCOB(c1ccccc1)c1ccccc1 [2-APB] | about 41.9% | inhibits Ca^2+-dependent GABA release |  |
| [Ca+2].[Cl-].[Cl-] [Ca^2+] |  |  | released more GABA than controls |
